These are literature values, as cited in patent US11752122B2 (OKLAHOMA MEDICAL RESEARCH FOUNDATION, priority 2018, dated 2023).

Like-named read-outs stand apart in the source and are kept apart here.

For series [1] the following is noted: cited from earlier work.
A further series concerns mouse model. To be noted: large doses, mouse model; cited from earlier work.
For series [2] the following is noted: cited from earlier work. This is another data set of the same source.

For the compound `CC(=O)N[C@@H](CS)C(=O)O` [NAC, N-acetylcysteine], the solubility result is reported as “soluble” in series [1] (alcohol), “practically insoluble” in series [1] (chloroform), “practically insoluble” in series [1] (ether) and “soluble” in series [1] (water). The “damage to the heart and lungs” value in the series on mouse model is “could potentially cause damage to the heart and lungs”. In addition, the liver damage result in series [2] (taken 4 hours after alcohol, dose-dependent) was “made liver damage worse”; in series [2] (taken before alcohol), “prevented liver damage”.
